Laboratory results from the supplement of paper PMC10307832.

How the values were obtained:
Assay in all cases: relative viability (nuclei count vs DMSO), 5 days (fraction); higher = more cells survive
AT-7519 + Alpelisib = compound: O=C(NC1CCNCC1)c1n[nH]cc1NC(=O)c1c(Cl)cccc1Cl [AT-7519] + Cc1nc(NC(=O)N2CCC[C@H]2C(N)=O)sc1-c1ccnc(C(C)(C)C(F)(F)F)c1 [Alpelisib] (partner 2 µM)
How it was run: (§1)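 One day after seeding in 1536-well plates, lung cancer cell lines were dosed by pin tool. Dosing was either single-drug or a fixed anchor-drug dose plus five library-drug doses (not always all listed) in √10 steps. After 5 days, nuclei were stained in one fix-and-stain step and counted on 4× images, and relative viability is the nuclei count of treated wells over that of vehicle wells, given as the median of duplicate plates.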

[1] = compound: C1=CC2=C(C=C(C(=C2N=C1)O)N=NC3=CC4=C(C=C3)C=C(C=C4)S(=O)(=O)O)S(=O)(=O)O + COc1cccc2cc(-c3nc([C@H]4CC[C@H](C(=O)O)CC4)n4ncnc(N)c34)[nH]c12 [OSI-027] (partner 0.5 µM)
How it was run: as §1

[2] = compound: C1=CC2=C(C=C(C(=C2N=C1)O)N=NC3=CC4=C(C=C3)C=C(C=C4)S(=O)(=O)O)S(=O)(=O)O + Cc1cc(Nc2cc(N3CCN(C)CC3)nc(Sc3ccc(NC(=O)C4CC4)cc3)n2)n[nH]1 [Tozasertib] (partner 0.1 µM)
How it was run: as §1

[3] = compound: C1=CC2=C(C=C(C(=C2N=C1)O)N=NC3=CC4=C(C=C3)C=C(C=C4)S(=O)(=O)O)S(=O)(=O)O + NC(=O)Nc1cc(-c2cccc(F)c2)sc1C(=O)N[C@H]1CCCNC1 [AZD7762] (partner 0.2 µM)
How it was run: as §1

Row | Cell Line | relative viability (AT-7519 + Alpelisib; first compound 0.01 µM) | relative viability (AT-7519 + Alpelisib; first compound 0.03162 µM) | relative viability (AT-7519 + Alpelisib; first compound 0.3162 µM) | relative viability (AT-7519 + Alpelisib; first compound 1 µM) | relative viability ([1]; first compound 0.08 µM) | relative viability ([1]; first compound 0.253 µM) | relative viability ([1]; first compound 0.8 µM) | relative viability ([1]; first compound 2.53 µM) | relative viability ([1]; first compound 8 µM) | relative viability ([2]; first compound 0.08 µM) | relative viability ([2]; first compound 0.253 µM) | relative viability ([2]; first compound 0.8 µM) | relative viability ([2]; first compound 2.53 µM) | relative viability ([2]; first compound 8 µM) | relative viability ([3]; first compound 0.08 µM) | relative viability ([3]; first compound 0.253 µM) | relative viability ([3]; first compound 0.8 µM) | relative viability ([3]; first compound 2.53 µM) | relative viability ([3]; first compound 8 µM)
1 | NCI-H1734 | 0.645 | 0.655 | 0.613 | 0.434 | 0.632 | 0.602 | 0.573 | 0.586 | 0.349 | 0.263 | 0.249 | 0.261 | 0.289 | 0.238 | 0.633 | 0.558 | 0.566 | 0.527 | 0.566
2 | HOP-62 | 1.19 | 0.965 | 0.936 | 0.668 | 0.843 | 0.817 | 0.67 | 0.807 | 0.836 | 0.458 | 0.381 | 0.384 | 0.403 | 0.363 | 0.715 | 0.34 | 0.607 | 0.731 | 0.57
3 | LOU-NH91 | 0.768 | 0.703 | 0.729 | 0.579 | 0.736 | 0.751 | 0.713 | 0.668 | 0.733 | 0.77 | 0.667 | 0.681 | 0.748 | 0.734 | 0.779 | 0.75 | 0.737 | 0.794 | 0.676
4 | PC-14 | 0.839 | 1 | 1 | 0.912 | 1.16 | 0.861 | 0.819 | 0.833 | 0.837 | 0.607 | 0.574 | 0.55 | 0.646 | 0.594 | 0.353 | 0.294 | 0.305 | 0.375 | 0.328
5 | NCI-H1437 | 1.05 | 0.931 | 0.816 | 0.477 | 0.93 | 0.899 | 0.889 | 0.961 | 0.813 | 0.421 | 0.392 | 0.407 | 0.408 | 0.287 | 1.11 | 1.11 | 1.1 | 1.2 | 1.08
6 | NCI-H460 | 0.667 | 0.526 | 0.322 | 0.0207 | 0.777 | 0.71 | 0.654 | 0.647 | 0.576 | 0.627 | 0.381 | 0.559 | 0.543 | 0.4 | 0.612 | 0.629 | 0.605 | 0.637 | 0.53
7 | NCI-H1666 | 0.846 | 1.01 | 0.864 | 0.326 | 0.897 | 0.838 | 0.793 | 0.827 | 0.847 | 0.621 | 0.628 | 0.609 | 0.657 | 0.434 | 0.868 | 0.798 | 0.787 | 0.802 | 0.771
8 | NCI-H1651 | 1.03 | 0.956 | 0.811 | 0.836 | 0.631 | 0.661 | 0.668 | 0.75 | 0.743 | 0.742 | 0.727 | 0.657 | 0.764 | 0.562 | 0.501 | 0.49 | 0.474 | 0.489 | 0.437
9 | NCI-H1755 | 0.856 | 0.95 | 1.03 | 0.871 | 0.705 | 0.74 | 0.786 | 0.689 | 0.703 | 0.608 | 0.539 | 0.555 | 0.615 | 0.577 | 0.535 | 0.419 | 0.361 | 0.457 | 0.459
10 | HARA | 0.836 | 0.72 | 0.816 | 0.541 | 0.633 | 0.524 | 0.513 | 0.522 | 0.48 | 0.105 | 0.107 | 0.102 | 0.111 | 0.117 | 0.384 | 0.261 | 0.267 | 0.362 | 0.469
11 | NCI-H596 | 0.485 | 0.548 | 0.191 | 0.41 | 0.812 | 0.653 | 0.613 | 0.695 | 0.663 | 1.16 | 0.926 | 0.834 | 0.818 | 1.04 | 1.25 | 1.12 | 1.13 | 1.04 | 1.17
12 | NCI-H23 | 0.561 | 0.785 | 0.68 | 0.45 | 0.619 | 0.585 | 0.637 | 0.654 | 0.603 | 0.375 | 0.323 | 0.417 | 0.388 | 0.401 | 0.186 | 0.199 | 0.317 | 0.177 | 0.312
13 | LCLC-97TM1 | 0.29 | 0.195 | 0.254 | 0.162 | 0.535 | 0.432 | 0.496 | 0.474 | 0.515 | 0.279 | 0.203 | 0.196 | 0.338 | 0.221 | 0.354 | 0.22 | 0.292 | 0.214 | 0.314
14 | EPLC-272H | 0.905 | 0.957 | 0.885 | 0.856 | 0.298 | 0.258 | 0.258 | 0.283 | 0.294 | 0.351 | 0.365 | 0.203 | 0.273 | 0.325 | 0.204 | 0.212 | 0.177 | 0.311 | 0.177
15 | NCI-H1915 | 1.06 | 1 | 1.04 | 0.732 | 0.59 | 0.667 | 0.649 | 0.634 | 0.628 | 0.471 | 0.445 | 0.463 | 0.436 | 0.437 | 0.735 | 0.706 | 0.661 | 0.688 | 0.679
16 | NCI-H2405 | 0.934 | 0.773 | 0.716 | 0.331 | 0.649 | 0.599 | 0.602 | 0.644 | 0.6 | 0.894 | 0.811 | 0.782 | 0.82 | 0.711 | 0.898 | 0.784 | 0.738 | 0.77 | 0.732
17 | NCI-H322M | 0.823 | 0.725 | 0.721 | 0.824 | 0.651 | 0.501 | 0.513 | 0.586 | 0.509 | 0.541 | 0.468 | 0.433 | 0.496 | 0.47 | 0.576 | 0.625 | 0.522 | 0.598 | 0.71
18 | NCI-H2170 | 0.828 | 0.796 | 0.794 | 0.81 | 0.958 | 0.676 | 0.666 | 0.756 | 0.689 | 0.678 | 0.714 | 0.753 | 0.774 | 0.638 | 1.02 | 1.04 | 0.89 | 1.01 | 0.914
19 | NCI-H1395 | 1.18 | 1.06 | 0.898 | 0.584 | 0.639 | 0.663 | 0.631 | 0.632 | 0.657 | 0.788 | 0.739 | 0.695 | 0.745 | 0.772 | 0.383 | 0.404 | 0.395 | 0.411 | 0.358
20 | NCI-H358 | 0.948 | 0.712 | 0.431 | 0.179 | 0.94 | 0.738 | 0.746 | 0.772 | 0.847 | 0.126 | 0.0956 | 0.0998 | 0.103 | 0.102 | 0.375 | 0.667 | 0.426 | 0.544 | 0.518
21 | NCI-H838 | 1.05 | 0.972 | 0.966 | 0.141 | 0.373 | 0.464 | 0.354 | 0.409 | 0.392 | 0.238 | 0.214 | 0.272 | 0.285 | 0.266 | 1.01 | 0.882 | 0.89 | 0.965 | 0.882
22 | CAL-12T | 1.27 | 1.02 | 0.534 | 0.13 | 0.592 | 0.585 | 0.577 | 0.819 | 0.831 | 0.29 | 0.34 | 0.378 | 0.327 | 0.296 | 0.621 | 0.6 | 0.61 | 0.635 | 0.601
